Measured values reported in patent US9517231B2, “Methods and pharmaceutical compositions for the treatment of symptoms of anxiety and panic using beta adrenergic receptor antagonist and muscarinic receptor antagonist combinations” (priority 2014, dated 2016).
Entries after “also recorded” stand apart in the source; their conditions may differ. Structures can show the parent of a compound that is named as a salt. Where two headings read alike, the source gives them in different places.

Columns and labels:
[1] = taste and mouth paresthesia of dose forms in humans
[2] = oral atenolol 50-200 mg; ~10 bpm on placebo; cited from earlier work
[3] = oral atenolol 50 mg, oral scopolamine HBr 0.3 mg; baseline and during sauna heat; cited from earlier work
[4] = cited from earlier work
[5] = healthy volunteers, CO2 inhalation; cited from earlier work
[6] = target: muscarinic acetylcholine receptors, all five human receptor subtypes; settings: cited from earlier work
[7] = liquid compositions, under or on the tongue
[8] = sublingual solid dose forms, HCl
[9] = oral 40 mg one hour prior to TSST

## CC(C)NCC(O)COc1cccc2ccccc12 (stereo not drawn) [Propranolol HCl]
[1]; [7]
  mouth paresthesia: produces mouth paresthesia
  taste: “acidic” and “medicine” taste
[1]; [8]
  mouth/tongue paresthesia: delayed paresthesia of the tongue
  taste: “acidic” and “medicine” taste

## CC(C)NCC(O)COc1ccc(CC(N)=O)cc1 (stereo not drawn) [atenolol]
[2]
  suppresses heart rate: 23-24 bpm
[3]
  cardiovascular effects (heart rate, blood pressure): reduced heart rate and blood pressure
[1]; sublingual solid dose forms
  mouth/tongue paresthesia: neither property was observed; also recorded: lacked these undesirable characteristics; also recorded: do not produce mouth paresthesia
  taste: neither property was observed; also recorded: lacked these undesirable characteristics; also recorded: do not have a taste

## CC(C)NCC(O)COc1cccc2ccccc12 (stereo not drawn) [propranolol]
[4]; 80 mg one hour prior to TSST
  BP or subjective stress: did not significantly affect
  heart rate: significantly reduced
  salivary cortisol: increased
[4]; daily oral 80 mg
  salivary cortisol response: did not affect
[4]; [9]
  cognitive flexibility during stress: enhanced
  heart rate: significantly reduced
  systolic blood pressure: reduced
[5]
  heart rate: significantly decreased
  psychic anxiolytic benefit: did not provide
[1]; sublingual solid dose forms
  mouth/tongue paresthesia: Paresthesia
  taste: undesirable taste

## CN1[C@@H]2C[C@@H](OC(=O)[C@H](CO)c3ccccc3)C[C@H]1[C@@H]1O[C@@H]12 [scopolamine]
[6]
  Ki: 0.34 to 5.3 nM
[3]
  cardiovascular effects (heart rate, blood pressure): essentially no effect
